The source of these data is patent US9687529B2, “Method of controlling coagulation” (Duke University, priority 2011, dated 2017).

Strand notation (5' to 3'): a small letter for the sugar, then the base; units joined by * are phosphorothioate-linked, units joined directly phosphodiester-linked; [ ] holds rarer units or linkages, { } end groups; capitals alone tell only the bases. r = 2'-OH (RNA); f = 2'-fluoro

Series [1] deals with thrombin generation in normal human platelet poor plasma. In words: Calibrated automated thrombography (CAT). In kind it is biochemical. Here is the method:
Normal human platelet poor plasma (80 μL) was mixed with aptamer(s) (10 μL) in an Immunolon 2HB U Bottom Mictrotiter 96-well plate (Thermo Labsystems, Franklin, Mass.) and incubated at 37° C. for 5 min. PPP reagent (Diagnostica Stago, Parsippany, N.J.) (either 1 ρM or 5 ρM TF, 20 μL, Diagnostica Stago) was added, and the mixture was incubated at 37° C. for another 5 min. FluCa (Diagnostica Stago) (10 μL) was added to initiate the assay and thrombin generation was measured for 60 minutes at 37° C. with a Fluoroskan Ascent fluorometer (ThermoLabsystem, Helsinki, Finland) according to the manufacturer's instructions. The amount of thrombin generated was quantified by comparison to an assay with thrombin calibrator reagent (Diagnostica Stago) that has a known activity toward the fluorogenic substrate. The lag time, peak amount of thrombin generated, and endogenous thrombin potential (ETP) were automatically calculated by the Thrombinoscope software (Thrombinoscope BV, the Netherlands).
Thrombin is the final protease formed in the coagulation cascade, and the rate of thrombin generation and the total amount of thrombin generated is associated with blood clot formation and stability (Wolberg, Blood Rev 21:131-42 (2007)). To gain more information about the impact of aptamer anticoagulation on the kinetics of thrombin generation, the individual aptamers were analyzed with calibrated automated thrombography (CAT). The CAT assay measures real-time thrombin generation in plasma by monitoring cleavage of a thrombin-specific fluorogenic substrate in response to TF stimulation (Heruker et al, Pathophysiol Haemost Thromb 33: 4-15 (2003)). The parameters of thrombin generation analyzed include: the lag time (time until thrombin generation begins), the peak (the maximal amount of thrombin generated at a given time) and the endogenous thrombin potential (ETP, the total amount of thrombin generated). Similar to the aPTT and PT clotting assays, all of the individual aptamers dose-dependently impacted the various parameters of thrombin generation (FIG. 21 and Table 1). […] 9.3T minorly impacted all parameters of thrombin generation with the high TF reagent; however, because high concentrations of TF may bypass FIX activity by directly generating FXa, the manufacturer recommends low concentrations of TF for analyzing FIX deficient (i.e, Hemophilia B) plasma in the CAT.

Series [2] deals with clot formation in whole blood. In words: Thromboelastography (TEG), whole blood stimulated with kaolin. It is filed as cell-based, human. The method, then:
(§1) Blood was drawn from healthy, consented volunteers under a Duke University Institutional Review Board approved protocol and anticoagulated with 3.2% sodium citrate. Whole blood (320 μL) was mixed with anticoagulant (heparin or aptamers) (10 μL) and kaolin (Haemonetics, Niles, Ill.) (10 μL) or CAT PRP reagent (Diagnostica Stago, 0.33 ρM TF final) (10 μL) was added to stimulate clotting. CaCl2 (20 μL) was immediately added to overcome the citrate, the mixture was added to a plain disposable plastic TEG cup (Haemonetics), and the assay was run according to the manufacturer's instructions. Clot formation at 37° C. was measured with a Thromboelastograph Analyzer (Haemonetics, Niles, Ill.) until a stable clot was formed (i.e., a maximum amplitude was reached) or for three hours with the aptamer combinations. The time lag time, α-angle, and maximum amplitude were automatically calculated by the TEG® Analytical Software version 4.2.3 (Haemonetics).
Although the aPTT, PT, and CAT assays provide basic information about dose-dependent anticoagulation, these assays are performed in an environment that lacks platelets. Platelets play a crucial role in clot formation by providing a membrane surface upon which the clotting factors assemble, by aggregating and becoming physically incorporated into the blood clot, and by releasing internal stores of agonists that amplify coagulation (Monroe et al, Arterioscler Thromb Vasc Biol 22:138 1-9 (2002)). Therefore, a study was made of aptamer anticoagulation with thromboelastography (TEG), which provides real-time information about the kinetics of clot formation in whole blood (Reikvam et al, Transfus Apher Sci; 40:119-23 (2009). The TEG assay uses mechanical motion to quantify the physical properties of clot formation, including the lag time (the time until clot formation), the α-angle (the rate of clot formation), and the maximum amplitude (the mechanical strength of the clot formed).

The test system of series [3] is clot formation in whole blood. In words: Thromboelastography (TEG), whole blood stimulated with tissue factor. It is filed as cell-based, human. The method, then: as §1
Because kaolin stimulates blood via the intrinsic pathway, it is unlikely that 7S-1 (FVIIa aptamer) would impair clot formation with this type of stimulation; thus, this aptamer was tested in a modified TEG with TF stimulation. CAT platelet rich plasma (PRP) reagent (TF) was diluted to a final concentration of 0.33 ρM TF to stimulate clotting.

Series [4] has as its system clot formation in normal human platelet poor plasma. In words: Activated partial thromboplastin time (aPTT) plasma clotting assay. It is filed as biochemical. The following applies: aPTT. Here is the method: The activated partial thromboplastin time (aPTT) and prothrombin time (PT) assays were performed on a model ST4 mechanical coagulometer (Diagnostica Stago, Parsippany, N.J.) as previously described (Bompiani et al, J Thromb Haemost 10:870-80 (2012)). For the aPTT, 50 μL of normal human platelet poor plasma (PPP) was incubated with 50 μL TriniClot aPTT S (Trinity BioTech, Bray, Co Wicklow, Ireland) at 37° C. for 5 min. Aptamer(s) (5 μL) was added, and the mixture was incubated at 37° C. for another 5 min, and CaCl2 (50 μL) was added to initiate the assay. For the PT, 50 μL of normal human PPP was incubated with 5 μL of aptamer(s) at 37° C. for 5 min. TriniClot PT Excel reagent (Trinity BioTech, Bray, Co Wicklow, Ireland) (100 μL) was added to initiate the reaction. Assays with a combination of two aptamers contain an equimolar concentration of each individual aptamer, and the data shown are the total RNA concentration.
To compare the anticoagulant effect of these four aptamers, dose-response titrations were performed in several clinical plasma-based clotting assays. The activated partial thromboplastin time (aPTT) and prothrombin time (PT) are plasma clotting assays that are clinically used to probe for abnormalities in the intrinsic and extrinsic coagulation pathways, respectively (Van Cott et al, editors. Jacobs & DeMott laboratory test handbook. 5th ed. Hudson Ohio: Lexi-Comp. p. 327-58 (2001)). These relatively simple assays measure the time until clot formation in platelet poor plasma (PPP) in response to either robust tissue factor (TF), or contact stimulation via negatively charged surfaces (i.e., silica, kaolin, celite). […] At high concentrations, the prothrombin aptamer (R9D-14T) was the most robust anticoagulant and inhibited greater than 96% of prothrombin activity in the aPTT and PT. At 4 μM, R9D-14T increased the aPTT clotting time approximately 18-fold and the PT clotting time greater than 80-fold (exceeded the assay limit of 999 sec). […] At the same dose, the FIXa aptamer (9.3T) inhibited greater than 99% of FIX activity and increased the aPTT clotting time approximately 5.5-fold, while the FVIIa aptamer (7S-1) increased the PT clotting time 3-fold and inhibited greater than 99% of FVII activity (FIGS. 20A and 20B).

In series [1] (RNA 5,000 nM, TF 5 ρM), “R9D-14Tmut: R9D-14T mutant control, SEQ ID NO: 7 (GGCGGTCGATCACACAGTTCAAACGTAATAAGCCGGCGTACGAGGCAGACGACTCGCC; 2'-fluoro at CT, RNA at AG, all phosphodiester, T or U not given here) [Aptamer R9D-14Tmut, reference compound]” returned an ETP of 1564.33 ± 121.22 nM·min, a Lag-time of 1.44 ± 0.06 min, a Peak of 312.12 ± 8.89 nM and a TTP of 3.66 ± 0.17 min. In series [2] (RNA 5.0 μM), the Angle is 56.0 ± 4.8 deg, the Lag-time stood at 6.5 ± 0.4 min and the “Max. Amplitude” value turned out to be 61.9 ± 4.0 mm. Moreover, in series [3] (RNA 5.00 μM), the Angle stood at 72.3 ± 0.7 deg, the Lag-time turned out to be 2.7 ± 0.2 min and the “Max. Amplitude” value was 66.1 ± 1.4 mm.
Consider “9.3Tmut: 9.3T mutant control, SEQ ID NO: 4 (AUGGGGACUGUGCCGCGUAAUGCUGCCUCCCCAU; 2'-fluoro at CU, RNA at AG, backbone not given here) [Aptamer 9.3Tmut, reference compound]”, for which, in series [1] (RNA 120 nM, TF 1 ρM), the ETP was found to be 1446.83 ± 59.97 nM·min, the Lag-time was found to be 3.11 ± 0.20 min, the Peak is 219.57 ± 33.93 nM and the TTP is 7.17 ± 0.59 min. In series [1] (RNA 120 nM, TF 5 ρM), this molecule yielded an ETP of 1820.83 ± 80.77 nM·min, a Lag-time of 1.89 ± 0.06 min, a Peak of 355.41 ± 17.21 nM and a TTP of 4.34 ± 0.10 min. Moreover, in series [2] (RNA 2.0 μM), the Angle is reported as 58.6 ± 7.8 deg, the Lag-time is 7.3 ± 2.1 min and the “Max. Amplitude” value was found to be 60.1 ± 5.8 mm. Also, in series [3] (RNA 1.00 μM), the Angle is given as 69.0 ± 4.8 deg, the Lag-time stood at 2.7 ± 0.4 min and the “Max. Amplitude” value is 67.2 ± 1.6 mm.
In series [1] (RNA 1,000 nM, TF 5 ρM), “11F7Tmut: 11F7T mutant control, SEQ ID NO: 6 (rGrArGrArGfCfCfCfCrArGfCrGrArGrAfUrArAfUrAfCfUfUrGfUrAfCfCfCrGfCfUfCfUfU) [Aptamer 11F7Tmut, reference compound]” gave an ETP of 1902.67 ± 87.44 nM·min, a Lag-time of 1.39 ± 0.06 min, a Peak of 391.12 ± 13.27 nM and a TTP of 3.73 ± 0.06 min. Besides, in series [2] (RNA 2.0 μM), the Angle amounted to 69.7 ± 1.2 deg, the Lag-time was 5.1 ± 0.6 min and the “Max. Amplitude” value amounted to 65.8 ± 0.8 mm. Besides, in series [3] (RNA 2.00 μM), the Angle is recorded as 68.5 ± 0.5 deg, the Lag-time was 3.9 ± 0.2 min and the “Max. Amplitude” value came out at 67.9 ± 0.7 mm.

B1: FIX/FX dogbone 2: bifunctional FIX/FX dogbone aptamer, SEQ ID NO: 16 (nucleic acid)
chain: GGAUGGGGACUAUACCGCGUAAUGCUGCCUCCCCAUCCAAAACGUAGAGAGCCCCAGCGAGAUAAUACUUGGCCCCGCUCUUUACGU
modifications: listed as RNA, chemistry not given here
Take B1: the “anti-coagulation of dogbones compared to the free combination of aptamers (in words)” value in series [4] was “equal anti-coagulation compared to the free combination”.

B2: FIX/FX dogbone 1: bifunctional FIX/FX dogbone aptamer, SEQ ID NO: 15 (nucleic acid)
chain: GGUGGAUGGGGACUAUACCGCGUAAUGCUGCCUCCCCAUCCACCAAAUAGCACGUAGAGAGCCCCAGCGAGAUAAUACUUGGCCCCGCUCUUUACGUGCUA
modifications: listed as RNA, chemistry not given here
Take B2: the “anti-coagulation of dogbones compared to the free combination of aptamers (in words)” value in series [4] was “equal anti-coagulation compared to the free combination”.

B3: FX/FII dogbone 3: bifunctional FX/FII dogbone aptamer, SEQ ID NO: 21 (nucleic acid)
chain: GGGUCGAUCACACAGUUCAAACGUAAUAAGCCAAUGUACGAGGCAGACGACUCCAAAAGCCCCAGCGAGAUAAUACUUGGCCCCGCU
modifications: listed as RNA, chemistry not given here
With B3, the “anti-coagulation of dogbones compared to the free combination of aptamers (in words)” value in series [4] is listed as “better anti-coagulation when compared to the free aptamers”.

B4: 3G dogbone 4: truncate of FX/FII dogbone 4, SEQ ID NO: 23 (nucleic acid)
chain: GGGUCGAUCACACAGUUCAAACGUAAUAAGCCAAUGUACGAGGCAGACGACCCAAAGCCCCAGCGAGAUAAUACUUGGCCCCGCU
modifications: listed as RNA, chemistry not given here
As for B4, the “anti-coagulation activity of dogbone 4 truncates (in words)” value in series [4] was “best anti-coagulation activity of the truncates”.

B5: 7S-1mut: 7S-1 mutant control, SEQ ID NO: 8 (nucleic acid)
chain: rGrGrGrArGrGrAfCrGrAfUrGfCrGrGrAfCfUfCfCfUfCfCrArArGfCrGrAfCfCrArAfCrAfUfCrGrGfUfCfUfUrAfUfUfUfCrArGrAfUfCrArAfCrArGrAfCrGrAfCfUfCrGfCfUrGrArGrGrAfUfCfCrGrArGrA
Regarding B5, in series [1] (RNA 30 nM, TF 5 ρM), the ETP was 1890.67 ± 23.55 nM·min, the Lag-time was 1.73 ± 0.06 min, the Peak is recorded as 357.63 ± 7.76 nM and the TTP is given as 4.45 ± 0.06 min. Further, in series [3] (RNA 0.50 μM), the Angle is on record as 67.8 ± 3.8 deg, the Lag-time worked out at 3.1 ± 0.1 min and the “Max. Amplitude” value is recorded as 67.2 ± 0.7 mm.

B6: FX/FII dogbone 1: bifunctional FX/FII dogbone aptamer, SEQ ID NO: 19 (nucleic acid)
chain: GGGGCGGUCGAUCACACAGUUCAAACGUAAUAAGCCAAUGUACGAGGCAGACGACUCGCCCCAAAACGUAGAGAGCCCCAGCGAGAUAAUACUUGGCCCCGCUCUUUACGU
modifications: listed as RNA, chemistry not given here
As to B6, the “anti-coagulation of dogbones compared to the free combination of aptamers (in words)” value in series [4] was “better anti-coagulation when compared to the free aptamers”.
